Structures can show the parent of a compound that is named as a salt.
The compounds below were run on A549 NSCLC cells (assay: Cellular cytotoxicity assay (Alamar Blue), A549). Settings: Homo sapiens, 72 h, upper end given as ≧100, read-out: IC50 (μM), cytotoxicity towards A549 NSCLC cells.
Format: cell-based
Method: The anti-proliferative activity of the histone deacetylase inhibitory compounds as described herein, is evaluated using the following cell lines: HeLa and HeLa-KB (cervical carcinoma), H460 (non small cell lung cancer), A549 (non-small cell lung cancer), MCF7 (breast carcinoma), MCF10A (normal, non tumorigenic breast epithelial), MDA-MB468 (breast carcinoma), MDA-MB435 (breast carcinoma), MDA-MB231 (breast carcinoma), SKBR-3 (breast carcinoma), SKOV-3 (ovarial carcinoma), A-2780 (ovarial carcinoma), RKO (colon carcinoma), HCT-15 (colon carcinoma), HCT-116 (colon carcinoma), PC3 (prostate carcinoma), BPH1 (benign prostate hyperplasia), AsPC1 (pancreatic carcinoma), Ca127 (tongue carcinoma), A-431 (vulva carcinoma), Hec1A (endometrial carcinoma), Saos-2 (osteosarcoma), U87MG (glioblastoma), WM266-4 (melanoma), K562 (chronic myeloid leukemia), EOL1 (acute hypereosinophilic myeloid leukemia), CCRF-CEM and CCRF-CEM VCR1000 (acute lymphoblastic leukemia sensitive and resistant towards Vincristine). For quantification of cellular proliferation/living cells the Alamar Blue (Resazurin) cell viability assay is applied (O'Brien et al. Eur J Biochem 267, 5421-5426, 2000). In this assay Resazurin is reduced to the fluorescent resorufine by cellular dehydrogenase activity, correlating with viable, proliferating cells. The examples are dissolved as 20 mM solutions in dimethylsulfoxide (DMSO) and subsequently diluted in semi-logarithmic steps. Cell lines are seeded at respective density into 96 well flat bottom plates in a volume of 200 μl per well. 24 h after seeding 1 μl each of the compound dilutions are added into each well of the 96 well plate. Each compound dilution is tested as quadruplicates. Wells containing untreated control cells are filled with 200 μl DMEM medium containing 0.5% v:v DMSO. The cells are then incubated with the compounds for 72 h at 37° C. in a humidified atmosphere containing 5% carbon dioxide. To determine the viability of the cells, 20 μl of a Resazurin solution (Sigma; 90 mg/l) are added. After 4 h incubation at 37° C. the fluorescence is measured at an extinction of λ=544 nm and an emission of λ=590 nm. For the calculation of the cell viability the emission value from untreated cells is set as 100% viability and the emission rates of treated cells are set in relation to the values of untreated cells. Viabilities are expressed as % values. The corresponding IC50 values of the compounds for cytotoxic activity are determined from the concentration-effect curves by means of non-linear regression.
With `Nc1ccccc1NC(=O)c1nc2c(s1)CN(C(=O)COc1ccc3ccccc3c1)CC2` [Example 175, N-(2-aminophenyl)-5-[(2-naphthyloxy)acetyl]-4,5,6,7-tetrahydro[1,3]thiazolo[5,4-c]pyridine-2-carboxamide] the IC50 was at least 0.2 µM.
In the case of `COC(=O)c1sccc1S(=O)(=O)N1CCc2nc(C(=O)Nc3ccccc3N)sc2C1` [Example 158, Methyl 3-({2-[(2-aminophenyl)carbamoyl]-6,7-dihydro[1,3]thiazolo[5,4-c]pyridin-5(4H)-yl}sulfonyl)thiophene-2-carboxylate], the IC50 is reported as at least 0.2 µM.
`COc1ccc(N=C(NC#N)N2CCc3nc(C(=O)Nc4cc(OC)ccc4N)sc3C2)cc1` [Example 124, N-(2-amino-5-methoxyphenyl)-5-{(cyanoamino)[(4-methoxyphenyl)imino]-methyl}-4,5,6,7-tetrahydro[1,3]thiazolo[5,4-c]pyridine-2-carboxamide] gave an IC50 of at least 0.2 µM.
For `Nc1ccccc1NC(=O)c1nc2c(s1)CN(C(=O)C(=O)Nc1ccc(N3CCOCC3)nc1)CC2` [Example 73, N-(2-aminophenyl)-5-{[(6-morpholin-4-ylpyridin-3-yl)amino](oxo)acetyl}-4,5,6,7-tetrahydro[1,3]thiazolo[5,4-c]pyridine-2-carboxamide], the IC50 was at least 0.2 µM.
Compound `COc1ccc(NC(=O)C(=O)N2CCc3nc(C(=O)Nc4ccccc4N)sc3C2)cc1OC` [Example 66, N-(2-aminophenyl)-5-{[(3,4-dimethoxyphenyl)amino](oxo)acetyl}-4,5,6,7-tetrahydro[1,3]thiazolo[5,4-c]pyridine-2-carboxamide] has an IC50 of at least 0.2 µM.
`CC(C)c1ccc(NC(=C[N+](=O)[O-])N2CCc3nc(C(=O)Nc4cc(C(C)C)ccc4N)sc3C2)cc1` [Example 148, N-(2-amino-5-isopropylphenyl)-5-{1-[(4-isopropylphenyl)amino]-2-nitrovinyl}-4,5,6,7-tetrahydro[1,3]thiazolo[5,4-c]pyridine-2-carboxamide] gave an IC50 of at least 0.2 µM.
With `Nc1ccccc1NC(=O)c1nc2c(s1)CN(C(=S)NC1CCC(c3cccnc3)CC1)CC2` (stereo not drawn) [Example 101, N-(2-aminophenyl)-5-{[(4-pyridin-3-ylcyclohexyl)amino]carbonothioyl}-4,5,6,7-tetrahydro[1,3]thiazolo[5,4-c]pyridine-2-carboxamide] the IC50 was at least 0.2 µM.
Work on `CN(C)c1ccc(N(C)C(=O)N2CCc3nc(C(=O)Nc4ccccc4N)sc3C2)cc1` [Example 22, N^2-(2-aminophenyl)-N^5-[4-(dimethylamino)phenyl]-N^5-methyl-6,7-dihydro-[1,3]thiazolo[5,4-c]pyridine-2,5(4H)-dicarboxamide] yielded an IC50 of at least 0.2 µM.
With `Nc1ccccc1NC(=O)c1nc2c(s1)CN(C(=O)C(=O)Nc1cccc3cnccc13)CC2` [Example 68, N-(2-aminophenyl)-5-[(isoquinolin-5-ylamino)(oxo)acetyl]-4,5,6,7-tetrahydro[1,3]thiazolo[5,4-c]pyridine-2-carboxamide] the IC50 was at least 0.2 µM.
With `COc1ccc(NC(=O)N2CCc3nc(C(=O)Nc4cc(OC)ccc4N)sc3C2)cc1` [Example 43, N^2-(2-amino-5-methoxyphenyl)-N^5-(4-methoxyphenyl)-6,7-dihydro[1,3]thiazolo[5,4-c]pyridine-2,5(4H)-dicarboxamide] the IC50 was at least 0.2 µM.
With `COCC(=O)N1CCc2nc(C(=O)Nc3ccccc3N)sc2C1` [Example 177, N-(2-aminophenyl)-5-(methoxyacetyl)-4,5,6,7-tetrahydro[1,3]thiazolo[5,4-c]pyridine-2-carboxamide] the IC50 was at least 0.2 µM.
`CN(C)c1cccc(N(C)C(=O)N2CCc3nc(C(=O)Nc4ccccc4N)sc3C2)c1` [Example 23, N^2-(2-aminophenyl)-N^5-[3-(dimethylamino)phenyl]-N^5-methyl-6,7-dihydro-[1,3]-thiazolo[5,4-c]pyridine-2,5(4H)-dicarboxamide] gave an IC50 of at least 0.2 µM.
`Nc1ccccc1NC(=O)c1nc2c(s1)CN(C(=O)Nc1ccc(N3CCC3)nc1)CC2` [Example 35, N^2-(2-aminophenyl)-N^5-(6-azetidin-1-ylpyridin-3-yl)-6,7-dihydro[1,3]thiazolo[5,4-c]pyridine-2,5(4H)-dicarboxamide] showed an IC50 of at least 0.2 µM.
For `Nc1ccccc1NC(=O)c1nc2c(s1)CN(C(=O)Oc1ccc3ccccc3c1)CC2` [Example 185, 2-naphthyl 2-[(2-aminophenyl)carbamoyl]-6,7-dihydro[1,3]thiazolo[5,4-c]-pyridine-5(4H)-carboxylate], the IC50 was at least 0.2 µM.
With `Nc1ccccc1NC(=O)c1nc2c(s1)CN(C(=O)Nc1ccc(OC(F)F)cc1)CC2` [Example 11, N^2-(2-aminophenyl)-N5-[4-(difluoromethoxy)phenyl]-6,7-dihydro[1,3]thiazolo[5,4-c]pyridine-2,5(4H)-dicarboxamide] the IC50 was at least 0.2 µM.
In the case of `CCCCNC(=C[N+](=O)[O-])N1CCc2nc(C(=O)Nc3ccccc3N)sc2C1` [Example 138, N-(2-aminophenyl)-5-[1-(butylamino)-2-nitrovinyl]-4,5,6,7-tetrahydro[1,3]thiazolo[5,4-c]pyridine-2-carboxamide], the IC50 is reported as at least 0.2 µM.
For `Nc1ccccc1NC(=O)c1nc2c(s1)CN(C(=S)Nc1cccc3cnccc13)CC2` [Example 104, N-(2-aminophenyl)-5-[(isoquinolin-5-ylamino)carbonothioyl]-4,5,6,7-tetrahydro[1,3]thiazolo[5,4-c]pyridine-2-carboxamide], the IC50 was at least 0.2 µM.
`CCCCNC(=O)C(=O)N1CCc2nc(C(=O)Nc3cc(C(C)C)ccc3N)sc2C1` [Example 84, N-(2-amino-5-isopropylphenyl)-5-[(butylamino)(oxo)acetyl]-4,5,6,7-tetrahydro[1,3]thiazolo[5,4-c]pyridine-2-carboxamide] was tested, and the IC50 was at least 0.2 µM.
`COc1ccc(NC(=O)N2CCc3nc(C(=O)Nc4cc(-c5ccsc5)ccc4N)sc3C2)cc1` [Example 56, N^2-[2-amino-5-(3-thienyl)phenyl]-N^5-(4-methoxyphenyl)-6,7-dihydro[1,3]thiazolo[5,4-c]pyridine-2,5(4H)-dicarboxamide] was tested, and the IC50 was at least 0.2 µM.
With `COc1ccc(NC(=O)N2CCc3nc(C(=O)Nc4cc(-c5cccs5)ccc4N)sc3C2)cc1` [Example 54, N^2-[2-amino-5-(2-thienyl)phenyl]-N^5-(4-methoxyphenyl)-6,7-dihydro[1,3]thiazolo[5,4-c]pyridine-2,5(4H)-dicarboxamide] the IC50 was at least 0.2 µM.
Work on `Nc1ccccc1NC(=O)c1nc2c(s1)CN(S(=O)(=O)c1cccc(OC(F)(F)F)c1)CC2` [Example 167, N-(2-aminophenyl)-5-{[3-(trifluoromethoxy)phenyl]sulfonyl}-4,5,6,7-tetrahydro[1,3]thiazolo[5,4-c]pyridine-2-carboxamide] yielded an IC50 of at least 0.2 µM.
Work on `COc1ccc(N=C(C)N2CCc3nc(C(=O)Nc4ccccc4N)sc3C2)cc1` [Example 128, N-(2-aminophenyl)-5-[N-(4-methoxyphenyl)ethanimidoyl]-4,5,6,7-tetrahydro[1,3]thiazolo[5,4-c]pyridine-2-carboxamide] yielded an IC50 of at least 0.2 µM.
With `Nc1ccccc1NC(=O)c1nc2c(s1)CN(C(=O)Oc1ccc(-c3ccccc3)cc1)CC2` [Example 181, Biphenyl-4-yl 2-[(2-aminophenyl)carbamoyl]-6,7-dihydro[1,3]thiazolo[5,4-c]pyridine-5(4H)-carboxylate] the IC50 was at least 0.2 µM.
`COc1ccc(NC(=S)N2CCc3nc(C(=O)Nc4cc(OC)ccc4N)sc3C2)cc1` [Example 106, N-(2-amino-5-methoxyphenyl)-5-{[(4-methoxyphenyl)amino]carbonothioyl}-4,5,6,7-tetrahydro[1,3]thiazolo[5,4-c]pyridine-2-carboxamide] was tested, and the IC50 was at least 0.2 µM.
`COc1ccc(N=C(NC#N)N2CCc3nc(C(=O)Nc4cc(C(C)C)ccc4N)sc3C2)cc1` [Example 125, N-(2-amino-5-isopropylphenyl)-5-{(cyanoamino)[(4-methoxyphenyl)-imino]methyl}-4,5,6,7-tetrahydro[1,3]thiazolo[5,4-c]pyridine-2-carboxamide] was tested, and the IC50 was at least 0.2 µM.
Work on `CC(=O)Nc1ccc(S(=O)(=O)N2CCc3nc(C(=O)Nc4ccccc4N)sc3C2)cc1` [Example 155, 5-[(4-acetamidophenyl)sulfonyl]-N-(2-aminophenyl)-4,5,6,7-tetrahydro[1,3]thiazolo[5,4-c]pyridine-2-carboxamide] yielded an IC50 of at least 0.2 µM.
Work on `CN=C(Nc1ccccc1)N1CCc2nc(C(=O)Nc3ccccc3N)sc2C1` [Example 114, N-(2-aminophenyl)-5-[anilino(methylimino)methyl]-4,5,6,7-tetrahydro[1,3]thiazolo[5,4-c]pyridine-2-carboxamide. (Dihydrochloride)] yielded an IC50 of at least 0.2 µM.

Reference: patent US8440830B2, “Tetrahydro-fused pyridines as histone deacetylase inhibitors” (4SC AG, priority 2007, dated 2013)
